The text below walks through data of ChEMBL document CHEMBL3217568, “trans-Stilbenoids: potent and selective inhibitors for human cytochrome P450 1B1” (Medchemcomm, 2011).

For assay [1], the species on record is Homo sapiens. Description: Selectivity ratio of IC50 for human CYP1A1 to IC50 for human CYP1B1.
The target in assay [2] is T1, Cytochrome P450 1A2 (Homo sapiens, UniProt P05177).
T1 sequence (P05177 whole entry): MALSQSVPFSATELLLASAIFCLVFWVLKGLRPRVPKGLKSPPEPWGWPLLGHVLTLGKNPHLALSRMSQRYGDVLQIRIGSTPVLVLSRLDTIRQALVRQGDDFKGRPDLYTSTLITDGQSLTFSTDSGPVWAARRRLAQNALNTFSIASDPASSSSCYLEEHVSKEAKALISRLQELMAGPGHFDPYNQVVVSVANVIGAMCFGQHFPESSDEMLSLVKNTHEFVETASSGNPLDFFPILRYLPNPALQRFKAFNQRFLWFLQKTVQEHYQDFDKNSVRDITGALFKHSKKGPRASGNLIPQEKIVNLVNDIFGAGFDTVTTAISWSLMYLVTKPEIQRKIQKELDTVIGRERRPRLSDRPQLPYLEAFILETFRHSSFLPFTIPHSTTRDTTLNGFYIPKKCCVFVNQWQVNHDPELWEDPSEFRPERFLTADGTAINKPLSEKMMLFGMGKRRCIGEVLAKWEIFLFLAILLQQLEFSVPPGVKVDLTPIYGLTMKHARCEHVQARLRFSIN
Description: Inhibition of human CYP1A2 expressed in Escherichia coli assessed as changes in ethoxyresorufin O-deethylation activity after 3 mins by spectrofluorometer analysis. It counts as ADME.

Assay [3] is filed under the species Homo sapiens. In words: Selectivity ratio of IC50 for human CYP1A2 to IC50 for human CYP1B1.
Assay [4] deals with T2, Cytochrome P450 1B1 (Homo sapiens, UniProt Q16678).
T2 sequence (Q16678 whole entry): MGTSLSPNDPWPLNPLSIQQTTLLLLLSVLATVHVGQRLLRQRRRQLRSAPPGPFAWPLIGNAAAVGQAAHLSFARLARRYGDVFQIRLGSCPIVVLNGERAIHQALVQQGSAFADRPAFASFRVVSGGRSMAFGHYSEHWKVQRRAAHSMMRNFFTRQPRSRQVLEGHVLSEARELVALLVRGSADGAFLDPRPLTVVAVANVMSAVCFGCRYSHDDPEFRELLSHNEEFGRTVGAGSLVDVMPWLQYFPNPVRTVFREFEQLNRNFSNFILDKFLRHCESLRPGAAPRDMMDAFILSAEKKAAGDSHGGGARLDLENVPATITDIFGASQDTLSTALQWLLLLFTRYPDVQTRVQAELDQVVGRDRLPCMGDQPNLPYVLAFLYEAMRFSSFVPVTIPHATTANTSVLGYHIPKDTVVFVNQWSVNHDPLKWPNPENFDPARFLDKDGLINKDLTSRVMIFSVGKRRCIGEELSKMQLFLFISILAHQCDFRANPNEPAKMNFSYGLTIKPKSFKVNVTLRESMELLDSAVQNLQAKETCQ
Description: Inhibition of human CYP1B1 expressed in Escherichia coli assessed as changes in ethoxyresorufin O-deethylation activity after 3 mins by spectrofluorometer analysis.

The target of assay [5] is T3, Cytochrome P450 1A1 (Homo sapiens, UniProt P04798).
T3 sequence (P04798 whole entry): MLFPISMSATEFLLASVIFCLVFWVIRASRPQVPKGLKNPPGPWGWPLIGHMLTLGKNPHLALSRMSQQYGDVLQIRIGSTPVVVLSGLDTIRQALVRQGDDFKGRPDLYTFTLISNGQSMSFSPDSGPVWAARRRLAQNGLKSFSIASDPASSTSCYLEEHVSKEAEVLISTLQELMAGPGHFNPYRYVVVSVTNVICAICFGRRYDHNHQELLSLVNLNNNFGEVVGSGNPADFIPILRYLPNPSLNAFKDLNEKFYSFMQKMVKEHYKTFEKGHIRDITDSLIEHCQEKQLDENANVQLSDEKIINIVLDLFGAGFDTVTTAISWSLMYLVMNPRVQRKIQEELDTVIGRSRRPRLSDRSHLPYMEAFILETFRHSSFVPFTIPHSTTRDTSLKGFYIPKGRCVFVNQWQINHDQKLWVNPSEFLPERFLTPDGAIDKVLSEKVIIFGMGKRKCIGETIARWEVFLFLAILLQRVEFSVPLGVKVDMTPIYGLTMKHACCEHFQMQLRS
In words: Inhibition of human CYP1A1 expressed in Escherichia coli assessed as changes in ethoxyresorufin O-deethylation activity after 3 mins by spectrofluorometer analysis. The format is ADME.

Assay [6] concerns the target T2, Cytochrome P450 1B1. In words: Inhibition of CYP1B1 (unknown origin).
Assay [7] deals with T3, Cytochrome P450 1A1. In words: Inhibition of CYP1A1 (unknown origin). It counts as ADME.

Turning to `COc1ccc(/C=C/c2ccc(OC)cc2OC)cc1`, the Ratio IC50 in assay [1] worked out at 12; in assay [3], 18. Further, the IC50 in assay [2] is 1060 nM; in assay [4] it was 57.5 nM; in assay [5], 666 nM.

With `COc1ccc(/C=C/c2cc(OC)c(OC)c(OC)c2)c(OC)c1`, the Ratio IC50 in assay [1] is 4.2; in assay [3], 66. The values for the IC50 in assay [2], in assay [4] and in assay [5] were 4690 nM, 71 nM and 301 nM, respectively.

`COc1ccc(/C=C/c2ccccc2OC)c(OC)c1`: the figures for the Ratio IC50 in assay [1] and in assay [3] were 22 and 51, respectively. Also, the IC50 was 792 nM in assay [2], 15.5 nM in assay [4] and 336 nM in assay [5].

On to `COc1ccc(/C=C/c2ccccc2)c(OC)c1`, for which the Ratio IC50 in assay [1] stood at 20; in assay [3], 13. Besides, the IC50 in assay [2] is 326 nM; in assay [4], 25 nM; in assay [5], 493 nM.

With `COc1ccc(/C=C/c2ccc(OC)c(OC)c2)c(OC)c1`, the Ratio IC50 came to 4.6 in assay [1] and 8.1 in assay [3]. The IC50 was 337 nM in assay [2], 41.8 nM in assay [4] and 190 nM in assay [5].

In the case of `COc1ccc(/C=C/c2c(OC)ccc(OC)c2OC)c(OC)c1`, the Ratio IC50 in assay [1] was found to be 127; in assay [3], 526. The IC50 in assay [2] was 1740 nM; in assay [4] it was 3.3 nM; in assay [5] it was 420 nM.

In the case of `COc1cc(O)cc(/C=C/c2ccc(O)cc2)c1`, the results for the Ki in assay [6] and in assay [7] were 900 nM and 120 nM, respectively.

As to `COc1ccc(OC)c(/C=C/c2ccc(OC)cc2OC)c1`, the values for the Ratio IC50 in assay [1] and in assay [3] were 100 and 86, respectively. Besides, the IC50 was found to be 302 nM in assay [2], 3.51 nM in assay [4] and 350 nM in assay [5].

Regarding `COc1ccc(/C=C/c2cccc(OC)c2OC)c(OC)c1`, the figures for the Ratio IC50 in assay [1] and in assay [3] were 3.2 and 4.1, respectively. The IC50 was 247 nM in assay [2], 60.3 nM in assay [4] and 192 nM in assay [5].

Turning to `COc1ccc(/C=C/c2ccc(OC)cc2OC)c(OC)c1`, the values for the Ratio IC50 in assay [1] and in assay [3] were 25 and 23, respectively. Further, the half-maximal inhibitory concentration (IC50) was 204 nM in assay [2], 8.81 nM in assay [4] and 222 nM in assay [5].

For the compound `COc1ccc(/C=C/c2cc(O)cc(O)c2)cc1` [RESVERATROL 4'-METHYL ETHER], the Ki is 2100 nM in assay [6] and 160 nM in assay [7].

Turning to `COc1cc(/C=C/c2ccc(O)cc2)cc(OC)c1` [PTEROSTILBENE], the Ki was determined as 900 nM in assay [6] and 570 nM in assay [7].

With `COc1ccc(/C=C/c2cc(OC)c(OC)cc2OC)c(OC)c1`, the results for the Ratio IC50 in assay [1] and in assay [3] were 14 and 43, respectively. Moreover, the IC50 is 236 nM in assay [2], 5.46 nM in assay [4] and 78.4 nM in assay [5].

Regarding `COc1ccc(/C=C/c2c(OC)cccc2OC)c(OC)c1`, the Ratio IC50 in assay [1] amounted to 194; in assay [3], 95. Besides, the IC50 is 170 nM in assay [2], 1.77 nM in assay [4] and 350 nM in assay [5].

Consider `COc1ccc(/C=C/c2c(OC)cc(OC)cc2OC)c(OC)c1`, for which the Ratio IC50 in assay [1] worked out at 30; in assay [3], 38. Moreover, the IC50 in assay [2] is 188 nM; in assay [4], 4.93 nM; in assay [5], 148 nM.

As to `COc1cccc(/C=C/c2ccc(OC)cc2OC)c1`, the figures for the Ratio IC50 in assay [1] and in assay [3] were 6.5 and 59, respectively. Further, the IC50 is 903 nM in assay [2], 15.2 nM in assay [4] and 98.2 nM in assay [5].
